What all share (assay): Kinase selectivity, DiscoverX scanMAX Kinase assay panel (% control)
Common to all, as to format: binding

Experiment [1] deals with T1, kinases of the scanMAX Kinase assay panel (Homo sapiens, UniProt P04626).
T1 construct: purchased DiscoverX Co. (contract measurement) scanMAX Kinase assay panel
The following applies: ERBB2; 1 uM. The procedure, abridged: (§1)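 A 1 uM DMSO solution of compound was applied across the panel kinases, and results were expressed as % control relative to DMSO (100%) and a positive control (0%).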

In experiment [2] the target is T2, kinases of the scanMAX Kinase assay panel (Homo sapiens, UniProt P42336, E545A).
T2 construct: purchased DiscoverX Co. (contract measurement) scanMAX Kinase assay panel
As to conditions: PIK3CA(E545A); 1 uM. The method in brief: as §1

The target of experiment [3] is T3, kinases of the scanMAX Kinase assay panel (Homo sapiens, UniProt Q56UN5).
T3 construct: purchased DiscoverX Co. (contract measurement) scanMAX Kinase assay panel
T3 sequence (Q56UN5 1-1328): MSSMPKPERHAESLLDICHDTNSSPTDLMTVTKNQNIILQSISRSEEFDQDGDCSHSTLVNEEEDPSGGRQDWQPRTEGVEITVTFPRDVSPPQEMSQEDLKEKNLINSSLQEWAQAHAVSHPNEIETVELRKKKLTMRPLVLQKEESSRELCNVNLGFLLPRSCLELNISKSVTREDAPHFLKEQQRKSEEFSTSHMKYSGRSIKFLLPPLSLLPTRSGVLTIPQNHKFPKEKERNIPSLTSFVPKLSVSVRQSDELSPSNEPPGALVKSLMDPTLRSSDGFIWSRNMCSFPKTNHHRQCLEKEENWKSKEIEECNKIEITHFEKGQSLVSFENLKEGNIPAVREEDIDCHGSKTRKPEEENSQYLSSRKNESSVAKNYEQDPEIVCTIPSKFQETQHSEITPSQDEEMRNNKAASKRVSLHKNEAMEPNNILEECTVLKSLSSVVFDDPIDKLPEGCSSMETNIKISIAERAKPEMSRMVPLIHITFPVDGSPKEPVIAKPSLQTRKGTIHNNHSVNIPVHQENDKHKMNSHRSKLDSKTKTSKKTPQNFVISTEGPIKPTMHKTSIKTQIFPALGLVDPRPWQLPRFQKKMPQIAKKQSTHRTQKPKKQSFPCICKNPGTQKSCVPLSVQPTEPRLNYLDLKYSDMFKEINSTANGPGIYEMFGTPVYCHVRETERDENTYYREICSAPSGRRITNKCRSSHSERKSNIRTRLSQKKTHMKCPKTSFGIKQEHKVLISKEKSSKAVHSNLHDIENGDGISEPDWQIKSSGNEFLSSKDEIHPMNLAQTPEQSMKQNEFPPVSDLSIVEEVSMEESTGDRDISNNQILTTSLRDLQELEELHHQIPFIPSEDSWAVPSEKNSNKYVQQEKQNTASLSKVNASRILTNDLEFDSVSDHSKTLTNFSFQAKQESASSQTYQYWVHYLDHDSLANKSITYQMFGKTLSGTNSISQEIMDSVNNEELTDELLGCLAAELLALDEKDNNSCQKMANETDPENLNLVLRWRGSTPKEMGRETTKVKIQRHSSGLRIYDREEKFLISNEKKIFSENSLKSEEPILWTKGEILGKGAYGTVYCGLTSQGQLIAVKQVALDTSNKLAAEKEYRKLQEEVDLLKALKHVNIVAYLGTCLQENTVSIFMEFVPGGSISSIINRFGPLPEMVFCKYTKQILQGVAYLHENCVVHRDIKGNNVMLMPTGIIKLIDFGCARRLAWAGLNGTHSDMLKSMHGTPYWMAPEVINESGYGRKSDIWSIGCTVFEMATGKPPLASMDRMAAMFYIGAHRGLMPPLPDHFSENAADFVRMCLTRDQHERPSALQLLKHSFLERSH
As to conditions: kinase YSK4; 1 uM in DMSO. The procedure, abridged: as §1

Experiment [4] deals with T4, kinases of the scanMAX Kinase assay panel (Homo sapiens, UniProt Q8NEV4).
T4 construct: purchased DiscoverX Co. (contract measurement) scanMAX Kinase assay panel
The following applies: MYO3A; 1 uM. The method in brief: as §1

The target of experiment [5] is T5, kinases of the scanMAX Kinase assay panel (Homo sapiens, UniProt Q9Y2U5).
T5 construct: purchased DiscoverX Co. (contract measurement) scanMAX Kinase assay panel
T5 sequence (Q9Y2U5 1-619): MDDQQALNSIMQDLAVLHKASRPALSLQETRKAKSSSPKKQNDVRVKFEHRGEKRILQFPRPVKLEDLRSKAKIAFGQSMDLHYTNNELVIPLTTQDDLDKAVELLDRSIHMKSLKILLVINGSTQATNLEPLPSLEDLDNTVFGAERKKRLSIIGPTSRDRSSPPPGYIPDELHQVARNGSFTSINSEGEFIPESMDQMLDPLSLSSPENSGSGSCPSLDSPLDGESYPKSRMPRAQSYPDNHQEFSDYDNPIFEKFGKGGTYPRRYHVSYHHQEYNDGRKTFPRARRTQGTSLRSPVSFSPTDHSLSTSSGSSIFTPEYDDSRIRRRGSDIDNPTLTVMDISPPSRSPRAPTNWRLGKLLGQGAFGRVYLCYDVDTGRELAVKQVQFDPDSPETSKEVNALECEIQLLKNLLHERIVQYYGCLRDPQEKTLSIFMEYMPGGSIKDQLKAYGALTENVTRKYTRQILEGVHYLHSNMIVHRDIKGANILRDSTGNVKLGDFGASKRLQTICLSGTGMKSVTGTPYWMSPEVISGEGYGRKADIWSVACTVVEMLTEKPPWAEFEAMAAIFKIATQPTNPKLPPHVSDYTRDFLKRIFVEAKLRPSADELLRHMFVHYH
The following applies: MAP3K2; 1 uM. The method in brief:
as §1

The structures appear in SMILES notation.

T1 sequence (P04626 23-1255): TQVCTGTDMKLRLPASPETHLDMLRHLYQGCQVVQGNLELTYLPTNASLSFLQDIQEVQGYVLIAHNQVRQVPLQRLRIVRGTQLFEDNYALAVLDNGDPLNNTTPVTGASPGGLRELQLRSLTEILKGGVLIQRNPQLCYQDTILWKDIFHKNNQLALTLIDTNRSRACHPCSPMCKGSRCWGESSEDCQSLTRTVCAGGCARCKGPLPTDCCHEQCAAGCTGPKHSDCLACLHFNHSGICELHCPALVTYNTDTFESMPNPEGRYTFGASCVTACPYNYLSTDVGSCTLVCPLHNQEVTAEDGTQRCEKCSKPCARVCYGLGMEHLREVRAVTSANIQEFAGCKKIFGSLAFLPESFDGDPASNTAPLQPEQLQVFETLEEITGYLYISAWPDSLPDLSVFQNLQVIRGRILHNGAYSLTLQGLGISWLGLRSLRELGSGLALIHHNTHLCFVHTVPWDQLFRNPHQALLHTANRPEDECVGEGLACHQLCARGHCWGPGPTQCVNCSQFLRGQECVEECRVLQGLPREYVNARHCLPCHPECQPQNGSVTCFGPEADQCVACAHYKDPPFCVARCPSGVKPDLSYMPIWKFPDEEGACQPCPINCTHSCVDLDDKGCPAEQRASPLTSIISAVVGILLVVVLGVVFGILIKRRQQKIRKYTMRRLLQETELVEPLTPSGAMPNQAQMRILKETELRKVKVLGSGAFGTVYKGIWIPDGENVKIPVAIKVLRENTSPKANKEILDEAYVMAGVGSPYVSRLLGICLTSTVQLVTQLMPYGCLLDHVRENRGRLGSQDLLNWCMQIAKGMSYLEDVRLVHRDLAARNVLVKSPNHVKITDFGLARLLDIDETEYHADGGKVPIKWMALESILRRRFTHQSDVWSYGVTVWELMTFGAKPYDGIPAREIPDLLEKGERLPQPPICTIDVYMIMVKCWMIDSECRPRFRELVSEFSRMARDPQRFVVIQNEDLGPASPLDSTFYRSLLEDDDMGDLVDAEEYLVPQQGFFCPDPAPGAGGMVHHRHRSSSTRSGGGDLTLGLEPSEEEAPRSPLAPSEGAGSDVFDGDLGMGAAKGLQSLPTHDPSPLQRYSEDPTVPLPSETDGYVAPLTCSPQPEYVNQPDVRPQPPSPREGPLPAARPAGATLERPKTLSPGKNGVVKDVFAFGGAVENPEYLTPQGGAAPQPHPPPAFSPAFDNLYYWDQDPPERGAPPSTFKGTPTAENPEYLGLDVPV
T4 sequence (Q8NEV4 whole entry): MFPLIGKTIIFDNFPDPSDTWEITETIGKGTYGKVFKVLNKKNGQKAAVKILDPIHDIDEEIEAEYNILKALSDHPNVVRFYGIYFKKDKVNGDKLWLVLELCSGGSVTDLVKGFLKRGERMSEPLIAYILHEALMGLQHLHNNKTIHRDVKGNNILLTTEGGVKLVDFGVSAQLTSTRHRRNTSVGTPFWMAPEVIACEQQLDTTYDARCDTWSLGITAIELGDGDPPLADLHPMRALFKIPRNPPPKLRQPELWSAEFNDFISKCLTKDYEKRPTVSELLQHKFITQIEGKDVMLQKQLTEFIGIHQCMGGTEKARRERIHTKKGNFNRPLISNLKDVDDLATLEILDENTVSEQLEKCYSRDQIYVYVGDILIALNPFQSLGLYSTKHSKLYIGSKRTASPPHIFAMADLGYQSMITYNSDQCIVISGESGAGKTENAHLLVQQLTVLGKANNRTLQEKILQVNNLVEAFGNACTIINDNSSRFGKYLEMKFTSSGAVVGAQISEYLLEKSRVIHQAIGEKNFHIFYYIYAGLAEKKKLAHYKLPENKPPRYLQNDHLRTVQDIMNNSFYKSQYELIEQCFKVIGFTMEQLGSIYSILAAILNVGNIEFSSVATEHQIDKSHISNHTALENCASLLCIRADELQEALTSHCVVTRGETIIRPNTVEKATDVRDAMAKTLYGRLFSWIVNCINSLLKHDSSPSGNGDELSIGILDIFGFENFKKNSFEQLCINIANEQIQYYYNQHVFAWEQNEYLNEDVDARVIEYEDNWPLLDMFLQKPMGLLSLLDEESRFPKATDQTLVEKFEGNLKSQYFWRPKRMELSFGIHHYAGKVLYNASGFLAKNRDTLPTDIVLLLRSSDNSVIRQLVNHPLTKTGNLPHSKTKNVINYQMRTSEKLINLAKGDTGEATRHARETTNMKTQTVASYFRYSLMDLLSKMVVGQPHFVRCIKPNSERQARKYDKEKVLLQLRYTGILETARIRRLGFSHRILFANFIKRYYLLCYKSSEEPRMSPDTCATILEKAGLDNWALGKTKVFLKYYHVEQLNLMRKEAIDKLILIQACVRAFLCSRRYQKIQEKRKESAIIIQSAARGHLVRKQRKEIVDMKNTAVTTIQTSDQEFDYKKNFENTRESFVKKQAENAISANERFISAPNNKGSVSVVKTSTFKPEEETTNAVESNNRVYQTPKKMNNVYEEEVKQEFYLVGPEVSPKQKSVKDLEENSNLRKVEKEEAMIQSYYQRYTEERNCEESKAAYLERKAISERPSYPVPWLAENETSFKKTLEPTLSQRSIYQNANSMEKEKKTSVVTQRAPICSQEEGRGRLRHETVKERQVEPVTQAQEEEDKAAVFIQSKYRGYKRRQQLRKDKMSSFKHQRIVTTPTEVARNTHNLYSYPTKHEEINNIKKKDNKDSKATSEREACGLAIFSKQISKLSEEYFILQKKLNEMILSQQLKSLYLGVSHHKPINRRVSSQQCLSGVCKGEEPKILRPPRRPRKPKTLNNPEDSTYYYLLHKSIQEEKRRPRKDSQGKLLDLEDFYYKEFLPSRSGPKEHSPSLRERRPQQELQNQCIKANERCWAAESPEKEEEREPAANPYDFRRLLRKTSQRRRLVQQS
T2 sequence (P42336 whole entry E545A): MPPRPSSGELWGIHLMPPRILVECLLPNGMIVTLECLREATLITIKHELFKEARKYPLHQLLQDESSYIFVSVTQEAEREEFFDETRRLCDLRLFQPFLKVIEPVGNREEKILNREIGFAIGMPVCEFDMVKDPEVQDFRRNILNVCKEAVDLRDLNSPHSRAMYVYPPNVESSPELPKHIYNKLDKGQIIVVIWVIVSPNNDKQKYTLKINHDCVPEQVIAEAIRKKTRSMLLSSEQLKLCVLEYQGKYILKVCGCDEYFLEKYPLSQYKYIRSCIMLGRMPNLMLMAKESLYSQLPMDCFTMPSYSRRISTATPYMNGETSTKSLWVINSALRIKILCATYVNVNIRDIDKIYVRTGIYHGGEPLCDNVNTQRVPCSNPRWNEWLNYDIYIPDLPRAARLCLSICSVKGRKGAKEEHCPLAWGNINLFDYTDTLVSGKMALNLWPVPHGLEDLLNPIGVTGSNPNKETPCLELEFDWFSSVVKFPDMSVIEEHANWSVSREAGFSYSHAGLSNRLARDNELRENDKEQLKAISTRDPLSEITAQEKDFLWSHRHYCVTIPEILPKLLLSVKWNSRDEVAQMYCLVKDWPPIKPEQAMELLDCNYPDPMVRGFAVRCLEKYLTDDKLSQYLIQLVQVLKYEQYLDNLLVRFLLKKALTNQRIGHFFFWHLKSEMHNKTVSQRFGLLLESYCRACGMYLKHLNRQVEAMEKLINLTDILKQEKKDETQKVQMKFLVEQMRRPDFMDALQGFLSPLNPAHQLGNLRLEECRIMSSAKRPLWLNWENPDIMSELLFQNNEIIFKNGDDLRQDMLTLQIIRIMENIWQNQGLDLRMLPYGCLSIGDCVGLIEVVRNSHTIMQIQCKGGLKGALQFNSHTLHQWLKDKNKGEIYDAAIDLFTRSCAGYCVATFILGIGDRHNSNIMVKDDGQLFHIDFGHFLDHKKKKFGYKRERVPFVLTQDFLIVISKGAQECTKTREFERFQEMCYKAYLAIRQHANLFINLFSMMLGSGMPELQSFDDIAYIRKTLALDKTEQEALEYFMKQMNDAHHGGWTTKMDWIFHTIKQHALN

Regarding `CC1(Nc2nc(Nc3cnn([C@H]4CCN(C5COC5)C[C@@H]4F)c3Cl)nc3[nH]cc(C#N)c23)CC1` [Example 52, 2-((5-chloro-1-((3S,4S)-3-fluoro-1-(oxetane-3-yl)piperidine-4-yl)-1H-pyrazole-4-yl)amino)((1-methylcyclopropyl)amino)-7H-pyrrolo[2,3-d]pyrimidine-5-carbonitrile], the remaining binding at 1 µM came out at 100% in experiment [1]; 71% in experiment [2]; 0% in experiment [3]; 3.9% in experiment [4]; 0.05% in experiment [5].

As for `CCNc1nc(Nc2ccc(C(=O)N3CCC(N4CCOCC4)CC3)cc2OC)nc2[nH]cc(C(F)(F)F)c12` [Example 104, (4-((4-(ethylamino)-5-(trifluoromethyl)-7H-pyrrolo[2,3-d]pyrimidine-2-yl)amino)-3-methoxyphenyl)(4-morpholinopiperidine-1-yl)methanone], the remaining binding at 1 µM in experiment [1] worked out at 100%; in experiment [2] it was 90%; in experiment [3] it was 94%; in experiment [4] it was 78%; in experiment [5] it was 92%.

In the case of `CNc1nc(Nc2ccc(C(=O)N3CCOCC3)cc2OC)nc2[nH]cc(C#N)c12` [Example 1, 2-((2-methoxy-4-(morpholine-4-carbonyl)phenyl)amino)-4-(methylamino)-7H-pyrrolo[2,3-d]pyrimidine-5-carbonitrile], the remaining binding at 1 µM was 79% in experiment [1]; 94% in experiment [2]; 12% in experiment [3]; 68% in experiment [4]; 85% in experiment [5].

Values taken from patent US11208412B2 (DAEGU-GYEONGBUK MEDICAL INNOVATION FOUNDATION, priority 2017, dated 2021).
